In US9446061B2, “Composition containing antibiotics and lysophosphatidylcholine for boosting immunity or treatment of bacterial infections” (priority 2011, dated 2016):

Experiments:
[1] = test system: CPA-CLP sepsis mouse model; assay: Combination effects of LPC and antibiotics (colistin, tobramycin, fusidin) in CPA-CLP sepsis mouse model (SEP013); single i.v. 6 hrs after CLP; format: in vivo, ICR mice; conditions: mpk: LPC 5, DW286aa 5, Colistin 5, Tobra 4, Fusidin 80, LPC + Colistin 5 + 5, LPC + Tobra 5 + 4, LPC + Fusidin 5 + 80
Excerpt: (§1) CPA is well known as an immunosuppressive agent. […] Then, the abdomen was closed following the general procedure.
(§2) Then, body weight and mortality changes were observed.

[2] = test system: CPA-CLP sepsis mouse model; assay: Effects of LPC, LPC isomers, Xigris and DW286aa on mortalities/survivabilities in CPA-CLP sepsis mouse model (SEP009); single i.v. 6 hrs after CLP; format: in vivo
Procedure: as §1, §2
In the Sham and CLP control groups, 10 ml/kg of only sterile physiological saline was single intravenously dosed.

[3] = LPC, LPC18:0, LPC18:1, LPA 5 mpk, Xigris 0.4 mpk, DW286aa 10 mpk, 1st CPA treat
[4] = LPC, LPC18:0, LPC18:1, LPA 5 mpk, Xigris 0.4 mpk, DW286aa 10 mpk, 2nd CPA treat
[5] = LPC, LPC18:0, LPC18:1, LPA 5 mpk, Xigris 0.4 mpk, DW286aa 10 mpk, At CLP (day 0)
[6] = LPC, LPC18:0, LPC18:1, LPA 5 mpk, Xigris 0.4 mpk, DW286aa 10 mpk, Day 1
[7] = LPC, LPC18:0, LPC18:1, LPA 5 mpk, Xigris 0.4 mpk, DW286aa 10 mpk, Day 2
[8] = LPC, LPC18:0, LPC18:1, LPA 5 mpk, Xigris 0.4 mpk, DW286aa 10 mpk, Day 3
[9] = LPC, LPC18:0, LPC18:1, LPA 5 mpk, Xigris 0.4 mpk, DW286aa 10 mpk, Day 4
[10] = LPC, LPC18:0, LPC18:1, LPA 5 mpk, Xigris 0.4 mpk, DW286aa 10 mpk, Day 5
[11] = LPC, LPC18:0, LPC18:1, LPA 5 mpk, Xigris 0.4 mpk, DW286aa 10 mpk, Day 6
[12] = LPC, LPC18:0, LPC18:1, LPA 5 mpk, Xigris 0.4 mpk, DW286aa 10 mpk, Day 7
[13] = LPC, LPC18:0, LPC18:1, LPA 5 mpk, Xigris 0.4 mpk, DW286aa 10 mpk, Day 8
[14] = LPC, LPC18:0, LPC18:1, LPA 5 mpk, Xigris 0.4 mpk, DW286aa 10 mpk, Day 9
[15] = LPC, LPC18:0, LPC18:1, LPA 5 mpk, Xigris 0.4 mpk, DW286aa 10 mpk, Day 10
[16] = LPC, LPC18:0, LPC18:1, LPA 5 mpk, Xigris 0.4 mpk, DW286aa 10 mpk, Total
[17] = Xigris 2 mpk, DW286aa 20 mpk, 1st CPA treat
[18] = Xigris 2 mpk, DW286aa 20 mpk, 2nd CPA treat
[19] = Xigris 2 mpk, DW286aa 20 mpk, At CLP (day 0)
[20] = Xigris 2 mpk, DW286aa 20 mpk, Day 1
[21] = Xigris 2 mpk, DW286aa 20 mpk, Day 2
[22] = Xigris 2 mpk, DW286aa 20 mpk, Day 3
[23] = Xigris 2 mpk, DW286aa 20 mpk, Day 4
[24] = Xigris 2 mpk, DW286aa 20 mpk, Day 5
[25] = Xigris 2 mpk, DW286aa 20 mpk, Day 6
[26] = Xigris 2 mpk, DW286aa 20 mpk, Day 7
[27] = Xigris 2 mpk, DW286aa 20 mpk, Day 8
[28] = Xigris 2 mpk, DW286aa 20 mpk, Day 9
[29] = Xigris 2 mpk, DW286aa 20 mpk, Day 10
[30] = Xigris 2 mpk, DW286aa 20 mpk, Total

## NC[C@H]1O[C@H](O[C@H]2[C@H](O)[C@@H](O[C@H]3O[C@H](CO)[C@@H](O)[C@H](N)[C@H]3O)[C@H](N)C[C@@H]2N)[C@H](N)C[C@@H]1O [Tobra, tobramycin]
[1]; 1st CPA treat
  Mortalities: 0
  Survivalities: 100%
[1]; 2nd CPA treat
  Mortalities: 0
  Survivalities: 100%
[1]; At CLP (day 0)
  Mortalities: 0
  Survivalities: 100%
[1]; Day 1
  Mortalities: 2
  Survivalities: 80%
[1]; Day 2
  Mortalities: 5
  Survivalities: 30%
[1]; Day 3
  Mortalities: 1
  Survivalities: 20%
[1]; Total
  Mortalities: 8
  Survivalities: 20%

## 1-oleoyl-2-hydroxy-sn-glycero-3-phosphocholine [LPC18:1]
[2]; [3]
  Mortalities: 0
  survivabilities: 100%
[2]; [4]
  Mortalities: 0
  survivabilities: 100%
[2]; [5]
  Mortalities: 0
  survivabilities: 100%
[2]; [6]
  Mortalities: 0
  survivabilities: 100%
[2]; [7]
  Mortalities: 10
  survivabilities: 0%
[2]; [8]
  Mortalities: 0
  survivabilities: 0%
[2]; [9]
  Mortalities: 0
  survivabilities: 0%
[2]; [10]
  Mortalities: 0
  survivabilities: 0%
[2]; [11]
  Mortalities: 0
  survivabilities: 0%
[2]; [12]
  Mortalities: 0
  survivabilities: 0%
[2]; [13]
  Mortalities: 0
  survivabilities: 0%
[2]; [14]
  Mortalities: 0
  survivabilities: 0%
[2]; [15]
  Mortalities: 0
  survivabilities: 0%
[2]; [16]
  Mortalities: 10
  survivabilities: 0%

## drotrecogin alfa (activated) [Xigris, reference compound]
[2]; [3]
  Mortalities: 0
  survivabilities: 100%
[2]; [4]
  Mortalities: 0
  survivabilities: 100%
[2]; [5]
  Mortalities: 0
  survivabilities: 100%
[2]; [6]
  Mortalities: 3
  survivabilities: 70%
[2]; [7]
  Mortalities: 4
  survivabilities: 30%
[2]; [8]
  Mortalities: 2
  survivabilities: 10%
[2]; [9]
  Mortalities: 0
  survivabilities: 10%
[2]; [10]
  Mortalities: 0
  survivabilities: 10%
[2]; [11]
  Mortalities: 0
  survivabilities: 10%
[2]; [12]
  Mortalities: 0
  survivabilities: 10%
[2]; [13]
  Mortalities: 1
  survivabilities: 0%
[2]; [14]
  Mortalities: 0
  survivabilities: 0%
[2]; [15]
  Mortalities: 0
  survivabilities: 0%
[2]; [16]
  Mortalities: 10
  survivabilities: 0%
[2]; [17]
  Mortalities: 0
  survivabilities: 100%
[2]; [18]
  Mortalities: 0
  survivabilities: 100%
[2]; [19]
  Mortalities: 0
  survivabilities: 100%
[2]; [20]
  Mortalities: 0
  survivabilities: 100%
[2]; [21]
  Mortalities: 5
  survivabilities: 50%
[2]; [22]
  Mortalities: 1
  survivabilities: 40%
[2]; [23]
  Mortalities: 3
  survivabilities: 10%
[2]; [24]
  Mortalities: 0
  survivabilities: 10%
[2]; [25]
  Mortalities: 0
  survivabilities: 10%
[2]; [26]
  Mortalities: 0
  survivabilities: 10%
[2]; [27]
  Mortalities: 1
  survivabilities: 0%
[2]; [28]
  Mortalities: 0
  survivabilities: 0%
[2]; [29]
  Mortalities: 0
  survivabilities: 0%
[2]; [30]
  Mortalities: 10
  survivabilities: 0%

## CC(=O)O[C@H]1C[C@@]2(C)[C@@H](C[C@@H](O)[C@H]3[C@@]4(C)CC[C@@H](O)[C@@H](C)[C@@H]4CC[C@@]32C)/C1=C(\CCC=C(C)C)C(=O)O [Fusidin, fusidic acid]
[1]; 1st CPA treat
  Mortalities: 0
  Survivalities: 100%
[1]; 2nd CPA treat
  Mortalities: 0
  Survivalities: 100%
[1]; At CLP (day 0)
  Mortalities: 0
  Survivalities: 100%
[1]; Day 1
  Mortalities: 2
  Survivalities: 80%
[1]; Day 2
  Mortalities: 5
  Survivalities: 30%
[1]; Day 3
  Mortalities: 1
  Survivalities: 20%
[1]; Total
  Mortalities: 8
  Survivalities: 20%

## CCCCCCCCCCCCCCCCCC(=O)OC[C@@H](O)COP(=O)([O-])OCC[N+](C)(C)C [LPC18:0]
[2]; [3]
  Mortalities: 0
  survivabilities: 100%
[2]; [4]
  Mortalities: 0
  survivabilities: 100%
[2]; [5]
  Mortalities: 0
  survivabilities: 100%
[2]; [6]
  Mortalities: 0
  survivabilities: 100%
[2]; [7]
  Mortalities: 6
  survivabilities: 40%
[2]; [8]
  Mortalities: 0
  survivabilities: 40%
[2]; [9]
  Mortalities: 1
  survivabilities: 30%
[2]; [10]
  Mortalities: 1
  survivabilities: 20%
[2]; [11]
  Mortalities: 0
  survivabilities: 20%
[2]; [12]
  Mortalities: 1
  survivabilities: 10%
[2]; [13]
  Mortalities: 1
  survivabilities: 0%
[2]; [14]
  Mortalities: 0
  survivabilities: 0%
[2]; [15]
  Mortalities: 0
  survivabilities: 0%
[2]; [16]
  Mortalities: 10
  survivabilities: 0%

## colistin
[1]; 1st CPA treat
  Mortalities: 0
  Survivalities: 100%
[1]; 2nd CPA treat
  Mortalities: 0
  Survivalities: 100%
[1]; At CLP (day 0)
  Mortalities: 0
  Survivalities: 100%
[1]; Day 1
  Mortalities: 1
  Survivalities: 90%
[1]; Day 2
  Mortalities: 5
  Survivalities: 40%
[1]; Day 3
  Mortalities: 2
  Survivalities: 20%
[1]; Total
  Mortalities: 9
  Survivalities: 20%
